This is an account of results in patent publication EP2768830B1, “APOPTOSIS-INDUCING AGENTS FOR THE TREATMENT OF CANCER AND IMMUNE AND AUTOIMMUNE DISEASES” (AbbVie Inc., priority 2011, dated 2013).

Read-outs that look alike come from different tables or passages of the source.

Assay [1] relates to mouse FL5.12 cells transfected with Bcl-XL. In words: FL5.12 cellular assay (cell viability, CellTiter-Glo).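 Further: each EC50 determination derived from duplicate measurements.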 In kind it is cell-based. Particulars: FL5.12 cells transfected with Bcl-XL, IL-3-depleted, 3% FBS assay media, 24 hours, CellTiter-Glo, read-out: FL5.12 Bcl-xL, - IL3, EC 50.
Protocol: For assaying the compound activity, the cells were exchanged into an IL-3-depleted deprivation media, which was identical to the growth media except for the absence of FBS and WEHI-3B conditional media, for 2 days. Then the cells were exchanged to 3% FBS assay media (RPMI with 2 mM glutamine, 1% 100 mM sodium pyruvate, 2% 1 M HEPES, 4 µL/L of β-mercaptoethanol, 1% penicillin-streptomycin, 3% FBS). Compounds in series dilutions were added, and the cells were cultured for 24 hours. Compounds in series dilutions were added, and the cells were cultured for 24 hours. Cell viability was assayed using the CellTiter-Glo assay (Promega Corp., Madison, WI) according to the manufacturer instructions. Individual determinations were the result of duplicate values.
In assay [2] the target is GST-Bcl-xL (Homo sapiens, UniProt Q07817). Particulars: read-out: TR-FRET binding Bcl-xL Ki. (In general: Time-resolved FRET reads energy transfer from a long-lived donor to a nearby acceptor.)
Chain of GST-Bcl-xL (Q07817 whole entry): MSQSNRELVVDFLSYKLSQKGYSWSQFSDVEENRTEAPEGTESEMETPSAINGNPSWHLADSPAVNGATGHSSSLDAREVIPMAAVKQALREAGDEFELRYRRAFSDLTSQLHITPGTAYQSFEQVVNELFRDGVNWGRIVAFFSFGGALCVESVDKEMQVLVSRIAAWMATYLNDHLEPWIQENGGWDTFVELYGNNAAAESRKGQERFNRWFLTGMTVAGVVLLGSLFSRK

For orientation: Ki means a measure of affinity in units of concentration, obtained from inhibition or displacement. In the case of `Cc1c(-c2ccc(N3CCc4cccc(C(=O)Nc5nc6ccccc6s5)c4C3)nc2C(=O)O)cnn1Cc1ccccc1OCCN1CCOCC1` [Example 79, 6-[8-(1,3-benzothiazol-2-ylcarbamoyl)-3,4-dihydroisoquinolin-2(1H)-yl]-3-(5-methyl-1-{2-[2-(morpholin-4-yl)ethoxy]benzyl}-1H-pyrazol-4-yl)pyridine-2-carboxylic acid], the EC50 in assay [1] (Mus musculus) came out at 19 nM. The Ki in assay [2] came to 0.5 nM.

Turning to `CN(C)c1ccccc1Cn1cc(-c2ccc(N3CCc4cccc(C(=O)Nc5nc6ccccc6s5)c4C3)nc2C(=O)O)cn1` [Example 80, 6-[8-(1,3-benzothiazol-2-ylcarbamoyl)-3,4-dihydroisoquinolin-2(1H)-yl]-3-{1-[2-(dimethylamino)benzyl]-1H-pyrazol-4-yl}pyridine-2-carboxylic acid], the EC50 in assay [1] (Mus musculus) was 253 nM. Further, the Ki in assay [2] amounted to 4 nM.

On to `Cc1c(-c2ccc(N3CCc4cccc(C(=O)Nc5nc6ccccc6s5)c4C3)nc2C(=O)O)cnn1Cc1ccccc1OCCCN1CCOCC1` [Example 81, 6-[8-(1,3-benzothiazol-2-ylcarbamoyl)-3,4-dihydroisoquinolin-2(1H)-yl]-3-(5-methyl-1-{2-[3-(morpholin-4-yl)propoxy]benzyl}-1H-pyrazol-4-yl)pyridine-2-carboxylic acid], for which, in assay [1] (Mus musculus), the EC50 was 37 nM. Further, the Ki in assay [2] came to 0.6 nM.

For the compound `Cc1c(-c2ccc(N3CCc4cccc(C(=O)Nc5nc6ccccc6s5)c4C3)nc2C(=O)O)cnn1CC1(C)CCCCC1` [Example 82, 6-[8-(1,3-benzothiazol-2-ylcarbamoyl)-3,4-dihydroisoquinolin-2(1H)-yl]-3-{5-methyl-1-[(1-methylcyclohexyl)methyl]-1H-pyrazol-4-yl}pyridine-2-carboxylic acid], the EC50 in assay [1] (Mus musculus) is 8 nM. For the same compound, the Ki in assay [2] was determined as 0.5 nM.

Turning to `CC1(C)CCC(Cn2cc(-c3ccc(N4CCc5cccc(C(=O)Nc6nc7ccccc7s6)c5C4)nc3C(=O)O)cn2)=C(c2ccc(Cl)cc2)C1` [Example 83, 6-[8-(1,3-benzothiazol-2-ylcarbamoyl)-3,4-dihydroisoquinolin-2(1H)-yl]-3-(1-{[2-(4-chlorophenyl)-4,4-dimethylcyclohex-1-en-1-yl]methyl}-1H-pyrazol-4-yl)pyridine-2-carboxylic acid], in assay [1] (Mus musculus), the EC50 is over 1000 nM. Further, the inhibitory constant (Ki) in assay [2] is 0.5 nM.

With `CCc1c(-c2ccc(N3CCc4cccc(C(=O)Nc5nc6ccccc6s5)c4C3)nc2C(=O)O)cnn1CC1CCCCC1` [Example 84, 6-[8-(1,3-benzothiazol-2-ylcarbamoyl)-3,4-dihydroisoquinolin-2(1H)-yl]-3-[1-(cyclohexylmethyl)-5-ethyl-1H-pyrazol-4-yl]pyridine-2-carboxylic acid], the EC50 in assay [1] (Mus musculus) was determined as 12 nM. In assay [2], the inhibition constant (Ki) amounted to 0.7 nM.

In the case of `CC(C)CC1(Cn2cc(-c3ccc(N4CCc5cccc(C(=O)Nc6nc7ccccc7s6)c5C4)nc3C(=O)O)cn2)CCCCC1` [Example 87, 6-[8-(1,3-benzothiazol-2-ylcarbamoyl)-3,4-dihydroisoquinolin-2(1H)-yl]-3-(1-{[1-(2-methylpropyl)cyclohexyl]methyl}-1H-pyrazol-4-yl)pyridine-2-carboxylic acid], the EC50 in assay [1] (Mus musculus) worked out at 124 nM. For the same compound, in assay [2], the Ki worked out at 4 nM.

For `COCCC1(Cn2cc(-c3ccc(N4CCc5cccc(C(=O)Nc6nc7ccccc7s6)c5C4)nc3C(=O)O)cn2)CCCCC1` [Example 88, 6-[8-(1,3-benzothiazol-2-ylcarbamoyl)-3,4-dihydroisoquinolin-2(1H)-yl]-3-(1-{[1-(2-methoxyethyl)cyclohexyl]methyl}-1H-pyrazol-4-yl)pyridine-2-carboxylic acid], the EC50 in assay [1] (Mus musculus) was 229 nM. Besides, the inhibition constant (Ki) in assay [2] amounted to 3 nM.

As to `COCCOc1ccccc1Cn1ncc(-c2ccc(N3CCc4cccc(C(=O)Nc5nc6ccccc6s5)c4C3)nc2C(=O)O)c1C` [Example 89, 6-[8-(1,3-benzothiazol-2-ylcarbamoyl)-3,4-dihydroisoquinolin-2(1H)-yl]-3-{1-[2-(2-methoxyethoxy)benzyl]-5-methyl-1H-pyrazol-4-yl}pyridine-2-carboxylic acid], the EC50 in assay [1] (Mus musculus) came to 23 nM. Besides, in assay [2], the Ki was found to be 0.5 nM.

In the case of `CC1(C)CCCC(Cn2cc(-c3ccc(N4CCc5cccc(C(=O)Nc6nc7ccccc7s6)c5C4)nc3C(=O)O)cn2)C1` (centres unmarked) [Example 92, 6-[8-(1,3-benzothiazol-2-ylcarbamoyl)-3,4-dihydroisoquinolin-2(1H)-yl]-3-{1-[(3,3-dimethylcyclohexyl)methyl]-1H-pyrazol-4-yl}pyridine-2-carboxylic acid], in assay [1] (Mus musculus), the EC50 was found to be 56 nM. Also, the Ki in assay [2] was 2 nM.

`COCCC(c1ccccc1)n1cc(-c2ccc(N3CCc4cccc(C(=O)Nc5nc6ccccc6s5)c4C3)nc2C(=O)O)cn1` (centres unmarked) [Example 93, 6-[8-(1,3-benzothiazol-2-ylcarbamoyl)-3,4-dihydroisoquinolin-2(1H)-yl]-3-[1-(3-methoxy-1-phenylpropyl)-1H-pyrazol-4-yl]pyridine-2-carboxylic acid]: the EC50 in assay [1] (Mus musculus) stood at 295 nM. Further, in assay [2], the inhibition constant Ki worked out at 16 nM.

Take `COCCCC(c1ccccc1)n1cc(-c2ccc(N3CCc4cccc(C(=O)Nc5nc6ccccc6s5)c4C3)nc2C(=O)O)cn1` (centres unmarked) [Example 94, 6-[8-(1,3-benzothiazol-2-ylcarbamoyl)-3,4-dihydroisoquinolin-2(1H)-yl]-3-[1-(4-methoxy-1-phenylbutyl)-1H-pyrazol-4-yl]pyridine-2-carboxylic acid]: the EC50 in assay [1] (Mus musculus) was found to be 253 nM. Further, the Ki in assay [2] was found to be 5 nM.

Consider `COC(=O)C(c1ccccc1)n1cc(-c2ccc(N3CCc4cccc(C(=O)Nc5nc6ccccc6s5)c4C3)nc2C(=O)O)cn1` (centres unmarked) [Example 95, 6-[8-(1,3-benzothiazol-2-ylcarbamoyl)-3,4-dihydroisoquinolin-2(1H)-yl]-3-[1-(2-methoxy-2-oxo-1-phenylethyl)-1H-pyrazol-4-yl]pyridine-2-carboxylic acid], for which the EC50 in assay [1] (Mus musculus) amounted to 542 nM. The Ki in assay [2] came to 11 nM.

In the case of `O=C(Nc1nc2ccccc2s1)c1cccc2c1CN(c1ccc(-c3cnn(C(CC4CCCCC4)c4ccccc4)c3)c(C(=O)O)n1)CC2` (centres unmarked) [Example 96, 6-[8-(1,3-benzothiazol-2-ylcarbamoyl)-3,4-dihydroisoquinolin-2(1H)-yl]-3-[1-(2-cyclohexyl-1-phenylethyl)-1H-pyrazol-4-yl]pyridine-2-carboxylic acid], in assay [1] (Mus musculus), the EC50 was determined as 620 nM. Further, the Ki in assay [2] came out at 12 nM.

As to `COCCCC1(Cn2ncc(-c3ccc(N4CCc5cccc(C(=O)Nc6nc7ccccc7s6)c5C4)nc3C(=O)O)c2C)CCCCC1` [Example 97, 6-[8-(1,3-benzothiazol-2-ylcarbamoyl)-3,4-dihydroisoquinolin-2(1H)-yl]-3-(1-{[1-(3-methoxypropyl)cyclohexyl]methyl}-5-methyl-1H-pyrazol-4-yl)pyridine-2-carboxylic acid], the EC50 in assay [1] was under 1 nM. Moreover, the Ki in assay [2] is 2 nM.

For `Cc1c(-c2ccc(N3CCc4cccc(C(=O)Nc5nc6ccccc6s5)c4C3)nc2C(=O)O)cnn1Cc1ccccc1OCC(C)(CO)CO` [Example 98, 6-[8-(1,3-benzothiazol-2-ylcarbamoyl)-3,4-dihydroisoquinolin-2(1H)-yl]-3-(1-{2-[3-hydroxy-2-(hydroxymethyl)-2-methylpropoxy]benzyl}-5-methyl-1H-pyrazol-4-yl)pyridine-2-carboxylic acid], the EC50 in assay [1] (Mus musculus) was 421 nM. Also, the Ki in assay [2] came out at 2 nM.

As for `Cc1c(-c2ccc(N3CCc4cccc(C(=O)Nc5nc6ccccc6s5)c4C3)nc2C(=O)O)cnn1Cc1ccccc1OCC1COCCO1` (centres unmarked) [Example 100, 6-[8-(1,3-benzothiazol-2-ylcarbamoyl)-3,4-dihydroisoquinolin-2(1H)-yl]-3-{1-[2-(1,4-dioxan-2-ylmethoxy)benzyl]-5-methyl-1H-pyrazol-4-yl}pyridine-2-carboxylic acid], the EC50 in assay [1] (Mus musculus) came out at 66 nM. Besides, the Ki in assay [2] is 3 nM.

`COCCOC1(Cn2ncc(-c3ccc(N4CCc5cccc(C(=O)Nc6nc7ccccc7s6)c5C4)nc3C(=O)O)c2C)CCCCC1` [Example 101, 6-[8-(1,3-benzothiazol-2-ylcarbamoyl)-3,4-dihydroisoquinolin-2(1H)-yl]-3-(1-{[1-(2-methoxyethoxy)cyclohexyl]methyl}-5-methyl-1H-pyrazol-4-yl)pyridine-2-carboxylic acid]: the EC50 in assay [1] (Mus musculus) is under 1 nM. The inhibition constant (Ki) in assay [2] was determined as 0.4 nM.

Turning to `O=C(Nc1nc2ccccc2s1)c1cccc2c1CN(c1ccc(-c3cccc(Oc4ccccc4)c3)c(C(=O)O)n1)CC2` [Example 103, 6-[8-(1,3-benzothiazol-2-ylcarbamoyl)-3,4-dihydroisoquinolin-2(1H)-yl]-3-(3-phenoxyphenyl)pyridine-2-carboxylic acid], in assay [1], the EC50 is over 1000 nM. Further, the Ki in assay [2] worked out at 0.6 nM.

Regarding `O=C(Nc1nc2ccccc2s1)c1cccc2c1CN(c1ccc(-c3cccc(Oc4ccc([N+](=O)[O-])cc4)c3)c(C(=O)O)n1)CC2` [Example 104, 6-[8-(1,3-benzothiazol-2-ylcarbamoyl)-3,4-dihydroisoquinolin-2(1H)-yl]-3-[3-(4-nitrophenoxy)phenyl]pyridine-2-carboxylic acid], the EC50 in assay [1] (Mus musculus) is over 1000 nM. Also, in assay [2], the Ki is 14 nM.

For the compound `O=C(Nc1nc2ccccc2s1)c1cccc2c1CN(c1ccc(-c3cccc(Oc4ccc(Cl)cc4)c3)c(C(=O)O)n1)CC2` [Example 105, 6-[8-(1,3-benzothiazol-2-ylcarbamoyl)-3,4-dihydroisoquinolin-2(1H)-yl]-3-[3-(4-chlorophenoxy)phenyl]pyridine-2-carboxylic acid], the EC50 in assay [1] (Mus musculus) is over 1000 nM. For the same compound, in assay [2], the Ki stood at 7 nM.

As for `O=C(Nc1nc2ccccc2s1)c1cccc2c1CN(c1ccc(-c3cccc(Cc4ccccc4)c3)c(C(=O)O)n1)CC2` [Example 106, 6-[8-(1,3-benzothiazol-2-ylcarbamoyl)-3,4-dihydroisoquinolin-2(1H)-yl]-3-(3-benzylphenyl)pyridine-2-carboxylic acid], in assay [1] (Mus musculus), the EC50 was 234 nM. In addition, the inhibition constant (Ki) in assay [2] was 0.1 nM.
